# In PMC12400753 (Respiratory Research, 2025):
# Assays:
# [1] = Plasma protein binding (fraction unbound); format: in vitro ADME; details: rat plasma
# human LPAR6 = molecular target: T1, human LPAR6 (Homo sapiens, UniProt P43657); test: LPA-induced calcium mobilization in transiently transfected HEK293T cells; format: cell-based; details: 3 h preincubation; LPA at EC80 13 µM
# T1 construct: host or cells: HEK293T
# T1 sequence (P43657 1-344): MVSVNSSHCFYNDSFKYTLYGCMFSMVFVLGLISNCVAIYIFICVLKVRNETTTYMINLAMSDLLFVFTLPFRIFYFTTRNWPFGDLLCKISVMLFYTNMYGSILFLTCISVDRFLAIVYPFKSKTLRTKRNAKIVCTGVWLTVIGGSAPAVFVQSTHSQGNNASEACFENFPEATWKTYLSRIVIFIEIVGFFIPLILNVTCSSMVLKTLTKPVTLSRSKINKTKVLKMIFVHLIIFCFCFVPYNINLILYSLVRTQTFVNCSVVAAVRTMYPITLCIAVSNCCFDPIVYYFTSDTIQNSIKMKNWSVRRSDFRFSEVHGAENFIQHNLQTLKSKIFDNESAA
# Protocol: (§1) We had previously assessed selectivity against LPAR2 and 3 [11]. […] Human LPAR1-6 plasmids were each transiently transfected into HEK293T cells and the EC80 (effective concentration producing 80% maximal effect) for LPA activation empirically determined. Selectivity was then tested in a concentration response paradigm using a 3 h preincubation followed by LPA-induced calcium mobilization.
# (§2) Plasmids containing human LPAR1-6 were obtained from Origene (Rockville, MD) and maxiprepped at Eton Biosciences (San Diego, CA). Transfection mix was prepared by adding Fugene 6 transfection mix to serum free media and 0.1 µg plasmid. After a 20 m incubation, HEK293T cells (ATCC, Manassas VA) were lifted with Accutase and added to the Fugene mix at a final concentration of 0.5 × 10^4 cells/well. Cells were then plated on black clear bottom 96-well plates and incubated overnight in a 37 °C, 5% CO2 incubator. […] During the last hour of incubation, media was removed and replaced with Fluo-4 NW calcium assay dye prepared as per manufacturer’s recommendations in assay buffer. Agonist plates containing LPA were prepared for individual receptor subytpes using their respective EC80. Calcium mobilization was measured as per manufacturer’s directions on a Flexstation 3 (Molecular Devices, San Jose, CA).
# human LPAR2 = molecular target: T2, human LPAR2 (Homo sapiens, UniProt Q9HBW0); test: as above; format: cell-based; details: 3 h preincubation; LPA at EC80 5 µM
# T2 construct: host or cells: HEK293T
# Protocol: as §1, §2
# human LPAR5 = molecular target: T3, human LPAR5 (Homo sapiens, UniProt Q9H1C0); test: as above; format: cell-based; details: 3 h preincubation; LPA at EC80 1 µM
# T3 construct: host or cells: HEK293T
# Protocol: as §1, §2
# human LPAR3 = molecular target: T4, human LPAR3 (Homo sapiens, UniProt Q9UBY5); test: as above; format: cell-based; details: 3 h preincubation; LPA at EC80 10 µM
# T4 construct: host or cells: HEK293T
# T4 sequence (Q9UBY5 1-353): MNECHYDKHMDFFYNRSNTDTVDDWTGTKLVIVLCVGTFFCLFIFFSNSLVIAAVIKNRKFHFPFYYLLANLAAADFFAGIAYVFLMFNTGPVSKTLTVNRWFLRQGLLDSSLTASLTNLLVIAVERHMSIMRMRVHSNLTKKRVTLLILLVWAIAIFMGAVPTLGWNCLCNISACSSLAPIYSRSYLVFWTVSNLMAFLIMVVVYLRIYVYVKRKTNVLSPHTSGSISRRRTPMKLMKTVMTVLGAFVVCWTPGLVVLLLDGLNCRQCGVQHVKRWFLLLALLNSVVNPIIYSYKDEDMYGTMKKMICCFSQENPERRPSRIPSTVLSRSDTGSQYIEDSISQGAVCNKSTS
# Protocol: as §1, §2
# human LPAR4 = molecular target: T5, human LPAR4 (Homo sapiens, UniProt Q99677); test: as above; format: cell-based; details: 3 h preincubation; LPA at EC80 10 µM
# T5 construct: host or cells: HEK293T
# Protocol: as §1, §2
# [2] = test system: bleomycin-induced lung fibrosis; test: Systemic (subcutaneous) bleomycin mouse model; format: in vivo; details: 3 mg/kg oral once a day, therapeutic
# Protocol: Mice were injected subcutaneously with bleomycin (0.1 units/day), on a schedule of 5 days on/2 days off to induce fibrosis. […] Dosing was maintained until study end, at which point lung tissues were collected. The right lobe was snap frozen and processed for collagen analysis for hydroxyproline; the left lobe was sectioned and stained with Masson’s trichrome stain for histological assessment of tissue collagen. This study was conducted by Inotiv (West Lafayette, IN). Forty-four female 9 week old C57Bl/6 mice (Jackson Labs) were provided standard chow (Envigo, Cat #: 8940), housed under standard conditions, and allowed to acclimate for > 3 days prior to enrollment. Prior to start, mice were weighed and placed into balanced enrollment groups. Four days prior to start, mice were anesthetized, dorsal fur shaved and removed with depilatory agent, and two circles (~ 1.5 cm diameter) heat-branded on their dorsal abdomen. Fur was removed as needed for the balance of the study to ensure consistent location of s.c. injections. Beginning on day 0 and through day 26, mice were anesthetized with isoflurane and administered 0.9% NaCl or bleomycin injections (100 µl/injection, s.c.) into each of the circles (2 injections/mouse/d) on a 5 day on/2 day off paradigm. Mice were administered 0.9% NaCl (vehicle) or bleomycin (0.1 U) with bleomycin doses split evenly between the two circles (i.e., 0.05 U/circle). […] Weight measures and health observations were made daily. On day 27, mice were dosed to enable trough blood/plasma collection on day 28, which was collected via retro-orbital approach under isoflurane anesthesia. Following blood collection, mice were administered vehicle or compound on a timetable as appropriate to enable a peak blood collection 2 h postdose. At the time of sacrifice, mice were anesthetized with pentobarbital, a tracheotomy performed and interfaced with a positive pressure ventilator providing 100% O2. The mouse’s chest was then opened, and a needle interfaced with an infusion pump introduced to the right ventricle. […] The lungs were then harvested, immediately immersed in ice-cold 0.9% NaCl, gross dissected and subjected to morphological analyses. Tissue samples will be processed for biochemical and/or histological analyses as described below. Masson’s Trichrome Blue stained slides were subjected to histological analyses using color segmentation analysis for lung fibrosis. Frozen lung samples underwent hydroxyproline analysis as described below. Lung tissue processing – following exsanguination and flushing of the pulmonary circulation to clear blood, the lungs were removed, placed in ice-cold 0.9% NaCl and processed on wet ice. Extraneous tissue was removed and whole lung weight recorded. […]
# T2 sequence (Q9HBW0 whole entry): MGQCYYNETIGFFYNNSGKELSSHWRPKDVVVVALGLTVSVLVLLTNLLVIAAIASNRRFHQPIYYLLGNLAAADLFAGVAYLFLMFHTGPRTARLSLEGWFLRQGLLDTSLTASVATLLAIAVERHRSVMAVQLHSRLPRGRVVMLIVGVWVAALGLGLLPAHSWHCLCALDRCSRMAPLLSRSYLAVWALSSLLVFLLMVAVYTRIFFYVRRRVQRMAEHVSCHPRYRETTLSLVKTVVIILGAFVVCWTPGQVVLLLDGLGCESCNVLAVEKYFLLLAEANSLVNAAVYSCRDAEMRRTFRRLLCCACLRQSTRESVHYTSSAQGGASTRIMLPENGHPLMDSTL
# T5 sequence (Q99677 whole entry): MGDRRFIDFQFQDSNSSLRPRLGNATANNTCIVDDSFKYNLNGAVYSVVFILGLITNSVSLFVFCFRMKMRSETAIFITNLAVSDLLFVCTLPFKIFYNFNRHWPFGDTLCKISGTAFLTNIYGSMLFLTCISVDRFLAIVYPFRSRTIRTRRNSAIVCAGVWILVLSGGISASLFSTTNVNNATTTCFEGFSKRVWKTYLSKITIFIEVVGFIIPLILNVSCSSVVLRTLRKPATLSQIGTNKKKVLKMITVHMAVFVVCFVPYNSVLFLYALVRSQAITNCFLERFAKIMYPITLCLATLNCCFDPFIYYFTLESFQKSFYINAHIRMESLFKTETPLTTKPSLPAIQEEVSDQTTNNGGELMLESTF
# T3 sequence (Q9H1C0 whole entry): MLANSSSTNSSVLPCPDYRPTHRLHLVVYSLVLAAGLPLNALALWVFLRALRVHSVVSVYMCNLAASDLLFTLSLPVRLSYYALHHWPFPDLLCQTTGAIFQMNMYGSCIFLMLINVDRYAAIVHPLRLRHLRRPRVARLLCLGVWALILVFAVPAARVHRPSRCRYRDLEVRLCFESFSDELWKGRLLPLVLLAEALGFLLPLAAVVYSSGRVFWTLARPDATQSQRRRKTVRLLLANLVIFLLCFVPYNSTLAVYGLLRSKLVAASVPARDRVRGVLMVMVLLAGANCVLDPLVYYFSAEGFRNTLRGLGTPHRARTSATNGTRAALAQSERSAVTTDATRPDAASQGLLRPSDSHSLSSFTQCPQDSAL
smiles,measurement,setting,value
COc1ccc(NC(=O)N(c2ccccc2C(C)C)C2CCC(C(=O)O)CC2)c(OC(F)F)n1 (centres unmarked) [PIPE-791],plasma fraction unbound,[1],0.057
same,IC50,human LPAR6,805 nM
same,IC50,human LPAR2,463 nM
same,IC50,human LPAR5,114 nM
same,IC50,human LPAR3,398 nM
same,IC50,human LPAR4,607 nM
same,reduction in lung hydroxyproline compared to bleomycin/vehicle,[2],40%
same,"tissue collagen fraction (TCF), trichrome",[2]; p = 0.0017,nearly full reduction
